Source: patent US12568967B2, “Compositions comprising pyridine carboxylate herbicides with synthetic auxin herbicides or auxin transport inhibitors” (priority 2018, dated 2026)

Legend:
[1] = system: Hordeum vulgare (spring barley, HORVS); format: in vivo
Protocol: (§1) Seeds of the desired test plant species were planted in a 90:10% v/v (volume/volume) mixture of PRO-MIX® BX (Premier Tech Horticulture, Quakertown, PA, USA) and PROFILE® GREENS GRADE™ (Profile Products LLC, Buffalo Grove, IL, USA) planting mixture, which typically has a pH of 5.2 to 6.2 and an organic matter content of at least 50 percent, in plastic pots with a surface area of 103.2 square centimeters (cm^2). […] The plants were grown for 7-36 days (d) in a greenhouse with an approximate 14-hour (h) photo-period which was maintained at about 23° C. during the day and 22° C. during the night. Nutrients and water were added on a regular basis and supplemental lighting was provided with overhead metal halide 1000-Watt lamps as necessary. The plants were employed for testing when they reached the second or third true leaf stage.
(§2) Emulsifiable concentrates of each of each pyridine carboxylate herbicide (Compound A or Compound B) were prepared at 100 grams acid equivalent per liter (g ae/L). The emulsifiable concentrates also included a safener, cloquintocet-mexyl, at 120 grams active ingredient per liter (g ai/L), unless otherwise noted below. An aliquot of each emulsifiable concentrate was placed in a 25 mL glass vial and diluted with an aqueous mixture of 1.25% (v/v) ACTIROB® B esterified rapeseed oil (Bayer Crop Science, Research Triangle Park, NC, USA) or MSO® Concentrate with LECI-TECH® methylated soybean oil (Loveland Products, Loveland, CO, USA) to obtain concentrated stock solutions at the highest application rate for each herbicide, based upon a 12 milliliter (mL) application volume at a rate of 187 liters per hectare (L/ha). The concentrated stock solutions were further diluted with an aqueous mixture of 1.25% v/v ACTIROB® B or MSO® Concentrate with LECI-TECH® to obtain stock solutions at reduced application rates for each herbicide. Spray solutions of the herbicide combinations (Compound A or Compound B plus synthetic auxin herbicide or auxin transport inhibitor) were prepared by adding weighed amounts or aliquots of the synthetic auxin herbicide or auxin transport inhibitor to the stock solutions of Compound A or Compound B to form 12-mL spray solutions in two-way combinations.
(§3) The spray solutions were applied to the plant material with an overhead Mandel track sprayer equipped with 8002E nozzles calibrated to deliver 187 L/ha over an application area of 0.503 square meters (m^2) at a spray height of 18 inches (43 centimeters (cm)) above the average plant canopy. Control plants were sprayed in the same manner with the solvent blank. All pyridine carboxylate herbicide (component a) application rates are given as “g ae/ha” and all synthetic auxin herbicide or auxin transport inhibitor (component b) application rates are given as “g ai/ha.”
(§4) The treated plants and control plants were placed in a greenhouse as described above and watered by sub-irrigation to prevent wash-off of the test compounds. After 20-22 d, the condition of the test plants as compared with that of the control plants was determined visually and scored on a scale of 0 to 100 percent where 0 corresponds to no injury and 100 corresponds to complete kill.

[2] = system: Triticum aestivum (spring wheat, TRZAS); format: in vivo
[3] = system: Brassica napus (spring rape, BRSNN); assay: Greenhouse postemergence trial BRSNN; format: in vivo
[4] = system: Polygonum convolvulus (wild buckwheat, POLCO); assay: Greenhouse postemergence trial POLCO; format: in vivo; conditions: POLCO; alone 280 g/ha
[5] = system: Viola tricolor (wild pansy, VIOTR); assay: Greenhouse postemergence trial VIOTR; conditions: VIOTR; alone 280 g/ha;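 further: greenhouse plants sprayed at second to third true leaf stage, injury rated visually after 20-22 d against solvent-blank sprayed controls, 0 meaning no injury and 100 complete kill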
[6] = system: Kochia scoparia (kochia, KCHSC); assay: Greenhouse postemergence trial KCHSC; format: in vivo; conditions: KCHSC; alone 280 g/ha
Protocol: as §1, §2, §3, §4

| Structure (SMILES) | % visual injury, Obs (crop phytotoxicity) ([1]; Hordeum vulgare (spring barley, HORVS), in vivo) [%] | % visual injury, Obs (crop phytotoxicity) ([2]; Triticum aestivum (spring wheat, TRZAS), in vivo) [%] | % visual injury, Obs ([3]; in vivo) [%] | % visual injury (Obs) ([1]; HORVS, alone 280 g/ha) [%] | % visual injury (Obs) ([2]; TRZAS, alone 280 g/ha) [%] | % visual injury (Obs) [4] [%] | % visual injury (Obs) [5] [%] | % visual injury (Obs) ([3]; BRSNN, alone 280 g/ha) [%] | % visual injury (Obs) [6] [%] |
| --- | --- | --- | --- | --- | --- | --- | --- | --- | --- |
| O=C(O)COc1ccc(Cl)cc1Cl [2,4-D Choline, 2,4-D choline, reference compound] | 0 | 0 | 80 | – | – | – | – | – | – |
| CNC.O=C(O)COc1ccc(Cl)cc1Cl [2,4-D DMA] | – | – | – | 0 | 5 | 55 | 65 | 83 | 10 |
